Legend:
Daudi cells = assay: CDC of Daudi cells, MTT analysis; format: cell-based, human; settings: increased concentrations of MβCD
Description: CDC was induced by incubating B cells with anti-CD20 mAb (as described in Example 2). After 1-hour incubation (3-(4,5-dimethylthiazol-2-yl)-2,5-diphenyltetrazolium bromide (MTT) solution (5 mg/ml, Roche, Diagnostics, Almere, The Netherlands) was added to each well (flat-bottom microtiter plates; Nunc, Rochester, N.Y.). The reaction was stopped after 4 hours of incubation at 37° C. by the addition of 100 μl of 20% SDS (Roche Diagnostics, Almere, The Netherlands). After overnight incubation at 37° C. the absorbance of the samples was measured at 550-525 nm using an Elisa reader (EL808x, Biotek instruments, Highland park, Vt., USA). Cytotoxicity was expressed as a relative viability of the stimulated cells compared to cells incubated with medium only and was calculated as follows: relative viability=[(Ae−Ab)/(Ac−Ab)]*100, where Ab is the background absorbance, Ae is experimental absorbance of the lysed cells and Ac is the absorbance of untreated cells. The viability was expressed as percentage survival in comparison to non-cholesterol depleted cells (control).

[1] = tested on: CD20 on freshly isolated B cells; assay: CD20/CD21 MFI ratio on freshly isolated B cells of atorvastatin-treated patients; format: in vivo, human; settings: day 3 vs day 0 after single dose 80 mg atorvastatin; CD20 detected with the named mAb
Excerpt: CD21 is a protein expressed by B cells. Its expression has been shown unaffected upon cholesterol depletion of a B cell line (Daudi) and for freshly isolated B cell enriched cell population of two independent donors (FIG. 26). Therefore, CD21 mAb binding is considered as an indicator for the amount of B cells present per staining. The MFI of CD20 mAb and CD21 mAb binding was identified by gating on viable cells in the lymphogate (FSC vs SSC), and subsequently on CD21+ cells when analyzing the MFI for the CD20 mAb. In order to be able to correlate the CD20 expression measured in between days CD20 mAb binding was quantitated relative to CD21 mAb binding within the same staining by calculating the ratio of MFI of CD20/CD21 mAb.
To determine CD20 and CD21 expression on B cells of hypercholesterolemic patients treated with atorvastatin PBMC were isolated out of whole blood drawn on day 0 (pre-treatment) and day 3 after treatment (as described in Example 7). Freshly isolated B cells were stained with different FITC-conjugated CD20 mAbs 2F2, 11B8, B1 (GlaxoSmithKline, Stevenage, United Kingdom) and PE-conjugated CD21 mAb (B-Ly4, BD Pharmingen, Franklin Lakes, N.J.) by 30 minutes incubation at room temperature in the dark. Cells were washed and mAb binding intensity (MFI) was analysed using a FACS Calibur (Becton Dickinson, Breda, The Netherlands).

[2] = tested on: B cell enriched cell population of a healthy volunteer; assay: Anti-CD20-induced CDC of freshly isolated primary B cells; format: cell-based, human; settings: for primary B cell population killed / cell lysis: MβCD-treated, saturating conditions (≧10 μg/ml); for cell lysis upon cholesterol depletion: primary B cells treated with MβCD
Description: Blood was obtained from a donor (either from a healthy volunteer or from patients included in clinical trials related to 2F2). Informed consent was provided according to the Declaration of Helsinki. The blood was used to isolate peripheral blood mononuclear cells (PMBC) via […] gradient separation. Briefly, 10 ml of whole blood was supplemented with 20-25 ml PBS (Braun, Oss, Netherlands). 13 ml of Lymphocyte Separation Medium (Lonza, Verviers, Belgium) was pipetted carefully underneath the diluted whole blood solution. The solution was centrifuged at 2000 rpm for 20 minutes whereupon the interphase containing the PBMC was collected. The cells were washed twice in PBS, counted with trypan blue and suspended in test medium (RMPI 1640/pen strep/0.1% BSA) at a concentration of 2-4×10^6 viable cells/ml. Cells were used to enrich B cells via negative depletion as described in Example 8.
PBMC (obtained as described under Example 17) were used to enrich for B cells using the Dynal B cell negative isolation kit (Dynal, Invitrogen, Carlsbad, Calif.) according to manufacturer's instruction. In brief, PBMC were washed and incubated for 20 minutes with mouse monoclonal antibodies directed against CD2, CD14, CD16, CD36, CD43 or CD235a at 4° C. Magnetic beads coated with human IgG4 against mouse monoclonal antibodies were added and the mixture was again incubated for 15 minutes at 4° C. After incubation mouse mAb-stained cells were separated from the mixture using a magnet. The remaining cells are considered as the B cell enriched population.
Human B cells were isolated from whole blood of a healthy volunteer (donor A) as described under Example 17 and Example 18.
The B cell enriched cell population of donor A and Daudi cells were incubated with MβCD as described under Example 2 and cell surface protein expression and sensitivity for CDC was measured.

[3] = tested on: freshly isolated human lymphoma B cells; assay: Rituximab-mediated CDC of freshly isolated human lymphoma B cells, MTT assay; format: cell-based; settings: 10 mg/ml MβCD 30 minutes; 400 μg/ml rituximab, 10% serum
Description: To extend these observations the influence of cholesterol depletion was studied in freshly isolated human lymphoma B cells. Tumor cells of three mantle cell lymphomas and a small B cell lymphoma were isolated out of bone marrow (10 ml) aspirated from the hip. The cell suspension was diluted twice with PBS (final volume 20 ml). 3 ml of Histopaque-1077 (Sigma Aldrich) was pipetted into two conical centrifuge tubes. 10 ml of diluted bone marrow was slowly layered on the top of Histopaque layer. Probes were centrifuged (400 g, 15 minutes, 25° C.) without brake. The white blood cell ring and plasma were isolated and washed twice with PBS. The leucocyte pellet was resuspeneded in 5 ml medium (RPMI or OptiMEM) and counted in a Bürker chamber using Turk dye. Cells were incubated with either diluent or MβCD (10 mg/ml) for 30 minutes. Treated cells were analyzed for their capacity to bind CD20 mAb as well as sensitivity for rituximab-mediated CDC induction.
For the rituximab-mediated CDC human CD20-positive lymphoma B cells were incubated with either diluent or 10 mg/ml MβCD for 30 minutes. […] The cytotoxic effects were measured in a MTT assay.

Substance | mAb-induced CDC (cell survival) (Daudi cells) | average decrease in CD20/CD21 MFI ratio [1] | primary B cell population killed / cell lysis [2] | lysis of B cell enriched cell population ([2]; non-depleted primary B cells, donor A) | cell lysis upon cholesterol depletion [2] | rituximab-mediated CDC [3]
2F2: human anti-CD20 mAb, VH SEQ ID NO:1, VL SEQ ID NO:2, disclosed in WO 2004/035607 | diminished | 18% | approximately 75% | could be lysed | reduced | –
rituximab: anti-CD20 antibody Rituxan/MabThera, type I | – | – | 20-25% | – | reduced | significantly decreased

— patent publication US20110091473A1, “NOVEL ANTIBODY THERAPIES” (GENMAB A/S, priority 2007, published 2011)
